Measurements: the NIST ThermoML archive (doi:10.1021/je8001305)
± gives the expanded uncertainty stated by the source.

Test: xn = mol fraction of the nth substance listed
Details: Liquid, Vibrating tube method

CC(C)O [propan-2-ol] + O
Details | mass density [kg/m3]
325.1 K, 4598.7 kPa, x1 = 0.2483 | 877.08 ± 0.89
325.1 K, 5089.3 kPa, x1 = 0.2483 | 877.36 ± 0.89
325.1 K, 5564.2 kPa, x1 = 0.2483 | 877.68 ± 0.89
325.1 K, 5954.2 kPa, x1 = 0.2483 | 877.93 ± 0.89
325.1 K, 6394.3 kPa, x1 = 0.2483 | 878.21 ± 0.89
325.1 K, 6808.5 kPa, x1 = 0.2483 | 878.48 ± 0.89
325.1 K, 7288 kPa, x1 = 0.2483 | 878.8 ± 0.89
325.1 K, 7782.7 kPa, x1 = 0.2483 | 879.08 ± 0.89
325.1 K, 8079.1 kPa, x1 = 0.2483 | 879.34 ± 0.89
325.1 K, 8438.9 kPa, x1 = 0.2483 | 879.63 ± 0.89
325.1 K, 8828.5 kPa, x1 = 0.2483 | 879.87 ± 0.89
325.1 K, 9358.9 kPa, x1 = 0.2483 | 880.18 ± 0.89
325.13 K, 29.2 kPa, x1 = 0.7258 | 782.68 ± 0.79
325.13 K, 83 kPa, x1 = 0.7258 | 782.69 ± 0.79
325.13 K, 268.1 kPa, x1 = 0.7258 | 782.93 ± 0.79
325.13 K, 528.3 kPa, x1 = 0.7258 | 783.18 ± 0.79
325.13 K, 873.7 kPa, x1 = 0.7258 | 783.5 ± 0.79
325.13 K, 1298.6 kPa, x1 = 0.7258 | 783.92 ± 0.8
325.13 K, 1709.2 kPa, x1 = 0.7258 | 784.33 ± 0.8
325.13 K, 2200.7 kPa, x1 = 0.7258 | 784.79 ± 0.8
325.13 K, 2652.1 kPa, x1 = 0.7258 | 785.22 ± 0.8
325.13 K, 3101.7 kPa, x1 = 0.7258 | 785.67 ± 0.8
325.13 K, 3550.6 kPa, x1 = 0.7258 | 786.11 ± 0.8
325.13 K, 4068.3 kPa, x1 = 0.7258 | 786.61 ± 0.8
325.13 K, 4579.4 kPa, x1 = 0.7258 | 787.07 ± 0.8
325.13 K, 5021.7 kPa, x1 = 0.7258 | 787.49 ± 0.8
325.13 K, 5496.1 kPa, x1 = 0.7258 | 787.93 ± 0.8
325.13 K, 5972.3 kPa, x1 = 0.7258 | 788.38 ± 0.81
325.13 K, 6450.8 kPa, x1 = 0.7258 | 788.82 ± 0.81
325.13 K, 6903 kPa, x1 = 0.7258 | 789.24 ± 0.81
325.13 K, 7392 kPa, x1 = 0.7258 | 789.7 ± 0.81
325.13 K, 7861.1 kPa, x1 = 0.7258 | 790.11 ± 0.81
325.13 K, 8322.8 kPa, x1 = 0.7258 | 790.52 ± 0.81
325.13 K, 8813.9 kPa, x1 = 0.7258 | 790.98 ± 0.81
325.13 K, 9287.4 kPa, x1 = 0.7258 | 791.41 ± 0.81
325.13 K, 9829.7 kPa, x1 = 0.7258 | 791.93 ± 0.81
350.15 K, 88 kPa, x1 = 0.4939 | 789.82 ± 0.8
350.15 K, 161.7 kPa, x1 = 0.4939 | 789.8 ± 0.8
350.15 K, 387.8 kPa, x1 = 0.4939 | 790.1 ± 0.8
350.15 K, 695.2 kPa, x1 = 0.4939 | 790.45 ± 0.8
350.15 K, 1020.8 kPa, x1 = 0.4939 | 790.78 ± 0.8
350.15 K, 1400.1 kPa, x1 = 0.4939 | 791.25 ± 0.8
350.15 K, 1795.8 kPa, x1 = 0.4939 | 791.61 ± 0.8
350.15 K, 2147.1 kPa, x1 = 0.4939 | 791.96 ± 0.81
350.15 K, 2497.9 kPa, x1 = 0.4939 | 792.31 ± 0.81
350.15 K, 2892.7 kPa, x1 = 0.4939 | 792.74 ± 0.81
350.15 K, 3277.9 kPa, x1 = 0.4939 | 793.12 ± 0.81
350.15 K, 3611.5 kPa, x1 = 0.4939 | 793.5 ± 0.81
350.15 K, 4087.3 kPa, x1 = 0.4939 | 794.01 ± 0.81
350.15 K, 4606.7 kPa, x1 = 0.4939 | 794.49 ± 0.81
350.15 K, 4955.2 kPa, x1 = 0.4939 | 794.83 ± 0.81
350.15 K, 5376 kPa, x1 = 0.4939 | 795.26 ± 0.81
350.15 K, 5837.6 kPa, x1 = 0.4939 | 795.69 ± 0.81
350.15 K, 6296.4 kPa, x1 = 0.4939 | 796.18 ± 0.81
350.15 K, 6886.6 kPa, x1 = 0.4939 | 796.77 ± 0.82
350.15 K, 7400.8 kPa, x1 = 0.4939 | 797.28 ± 0.82
350.15 K, 7935.6 kPa, x1 = 0.4939 | 797.73 ± 0.82
350.15 K, 8400.3 kPa, x1 = 0.4939 | 798.24 ± 0.82
350.15 K, 9000.6 kPa, x1 = 0.4939 | 798.68 ± 0.82
350.15 K, 9521.2 kPa, x1 = 0.4939 | 799.18 ± 0.82
350.18 K, 84.4 kPa, x1 = 0.2483 | 850.19 ± 0.86
350.18 K, 220 kPa, x1 = 0.2483 | 850.33 ± 0.86
350.18 K, 511 kPa, x1 = 0.2483 | 850.54 ± 0.86
350.18 K, 938.8 kPa, x1 = 0.2483 | 850.91 ± 0.86
350.18 K, 1369.7 kPa, x1 = 0.2483 | 851.29 ± 0.86
350.18 K, 2066.9 kPa, x1 = 0.2483 | 851.75 ± 0.86
350.18 K, 2381 kPa, x1 = 0.2483 | 852.09 ± 0.86
350.18 K, 2718.1 kPa, x1 = 0.2483 | 852.39 ± 0.86
350.18 K, 3107.7 kPa, x1 = 0.2483 | 852.73 ± 0.86
350.18 K, 3464.8 kPa, x1 = 0.2483 | 853.04 ± 0.87
350.18 K, 3957.6 kPa, x1 = 0.2483 | 853.37 ± 0.87
350.18 K, 4346 kPa, x1 = 0.2483 | 853.71 ± 0.87
350.18 K, 4781.1 kPa, x1 = 0.2483 | 854.06 ± 0.87
350.18 K, 5267.8 kPa, x1 = 0.2483 | 854.49 ± 0.87
350.18 K, 5743.8 kPa, x1 = 0.2483 | 854.83 ± 0.87
350.18 K, 6196.4 kPa, x1 = 0.2483 | 855.2 ± 0.87
350.18 K, 6734.2 kPa, x1 = 0.2483 | 855.63 ± 0.87
350.18 K, 7374.9 kPa, x1 = 0.2483 | 856.07 ± 0.87
350.18 K, 7999 kPa, x1 = 0.2483 | 856.54 ± 0.87
350.18 K, 8630.3 kPa, x1 = 0.2483 | 857.02 ± 0.87
350.18 K, 9298.3 kPa, x1 = 0.2483 | 857.54 ± 0.87
351.14 K, 93.2 kPa, x1 = 0.7258 | 756.9 ± 0.77
351.14 K, 241.5 kPa, x1 = 0.7258 | 757.15 ± 0.77
351.14 K, 444.5 kPa, x1 = 0.7258 | 757.34 ± 0.77
351.14 K, 822.4 kPa, x1 = 0.7258 | 757.8 ± 0.77
351.14 K, 1271.6 kPa, x1 = 0.7258 | 758.33 ± 0.77
351.14 K, 1673.9 kPa, x1 = 0.7258 | 758.75 ± 0.77
351.14 K, 2070.5 kPa, x1 = 0.7258 | 759.26 ± 0.77
351.14 K, 2461.1 kPa, x1 = 0.7258 | 759.66 ± 0.77
351.14 K, 2863.4 kPa, x1 = 0.7258 | 760.12 ± 0.78
351.14 K, 3280.9 kPa, x1 = 0.7258 | 760.61 ± 0.78
351.14 K, 4252.5 kPa, x1 = 0.7258 | 761.65 ± 0.78
351.14 K, 4626.4 kPa, x1 = 0.7258 | 762.11 ± 0.78
351.14 K, 5075.9 kPa, x1 = 0.7258 | 762.61 ± 0.78
351.14 K, 5558.5 kPa, x1 = 0.7258 | 763.09 ± 0.78
351.14 K, 5976.2 kPa, x1 = 0.7258 | 763.59 ± 0.78
351.14 K, 6439.8 kPa, x1 = 0.7258 | 764.08 ± 0.79
351.14 K, 6882.2 kPa, x1 = 0.7258 | 764.57 ± 0.79
351.14 K, 7348.6 kPa, x1 = 0.7258 | 765.1 ± 0.79
351.14 K, 7809.3 kPa, x1 = 0.7258 | 765.6 ± 0.79
351.14 K, 8254 kPa, x1 = 0.7258 | 766.09 ± 0.79
351.14 K, 8720.2 kPa, x1 = 0.7258 | 766.63 ± 0.79
351.14 K, 9221.3 kPa, x1 = 0.7258 | 767.15 ± 0.79
351.14 K, 9714.8 kPa, x1 = 0.7258 | 767.73 ± 0.79
351.14 K, 10240 kPa, x1 = 0.7258 | 768.31 ± 0.8
